# Like-named read-outs stand apart in the source and are kept apart here.
# What was measured:
# Format in all cases: cell-based
# B3-AR = B3-AR (Homo sapiens (Human), UniProt P13945); assay: cAMP potency assay, B3-AR expressing CHO-K1 cells
# [1] = biological target: β2 adrenergic receptors in human astrocytoma cells (1321N1) (Homo sapiens (Human), UniProt P07550); assay: cAMP HTRF assay in human astrocytoma cells (1321N1); details: Endogenous receptor, 1321N1 cells
# Protocol: cAMP homogeneous time-resolved fluorescence (HTRF). Compound efficacy was determined using the cAMP Gs dynamic HTRF assay (Cisbio, catalog #62AM4PEC) largely following the manufacturer's instructions, also detailed below.
# Compound preparation. […] Standard serial dilution curves were 10-point, 5-fold dilutions starting from a highest concentration of 10 μM. […] Assay plates were centrifuged at 500×g for 10 seconds. Compounds and IBMX were prepared at 2× final dose to compensate for addition of cells.
# Cell preparation. 1× stimulation buffer, washing PBS (Dulbecco's phosphate-buffered saline, −Mg −Ca; Caisson Labs, catalog #PBL01), assay PBS (Dulbecco's phosphate-buffered saline, +Mg, +Ca; Caisson Labs, catalog #PBL02) and Versene (0.02% EDTA disodium salt solution in PBS without calcium or magnesium; Caisson Labs, catalog #EDL01) were pre-warmed to 37° C. Cells expressing beta-adrenergic receptor were washed in washing PBS to remove growth medium and then released from the surface by incubating with Versene for 5-10 minutes at 37° C. Cells were harvested using assay PBS, counted manually by hemocytometer or by an automated cell counter, pelleted by centrifugation (200×g, 5 minutes) and resuspended in 37° C. 1× stimulation buffer to a final density of 1.5×10^6 cells/mL. 5 μL of the suspended cell solution (7500 cell total) were added to all wells of the 384 well assay plate, the assay plate was covered with an Axygen® plate seal (Corning PCR-SP) and incubated in a humidified 37° C. environment supplemented with 5% CO2 for 30 minutes.
# HTRF reagent addition, reading and data analysis. After 30 minutes of cell stimulation with test compound, the assay plates were centrifuged at 500×g for 10 seconds, and incubation was stopped with the addition of 5 μL cAMP-D2 acceptor, diluted 1:21 in detection and lysis buffer 2 (Cisbio 62CL2FDF) was added to all cells. Subsequently, 5 μL Anti-cAMP-Eu Donor, diluted 1:21 in detection and lysis buffer 2, was added to cells. Plates were sealed and reactions gently ‘vortexed’ at 900 rpm on a Heidolph Titramax 1000 for at least 30 minutes at room temperature. Plates were centrifuged again at 500×g for 10 seconds, and HTRF was measured using a Tecan Spark plate reader at 50 flashes per well. […] Potency estimates (EC50) were derived from the four-parameter nonlinear regression of the concentration-effect curve and an estimate of relative efficacy was determined by comparing the magnitude of the test compound HTRF signal window (min−max dose) with the signal window of the full agonist control, isoproterenol.
# β2 adrenergic receptor = β2 adrenergic receptor (Homo sapiens (Human), UniProt P07550); assay: cAMP Gs dynamic HTRF assay, β2 expressing CHO cells; details: B2-AR
# Chain of β2 adrenergic receptor (P07550 whole entry, species assumed): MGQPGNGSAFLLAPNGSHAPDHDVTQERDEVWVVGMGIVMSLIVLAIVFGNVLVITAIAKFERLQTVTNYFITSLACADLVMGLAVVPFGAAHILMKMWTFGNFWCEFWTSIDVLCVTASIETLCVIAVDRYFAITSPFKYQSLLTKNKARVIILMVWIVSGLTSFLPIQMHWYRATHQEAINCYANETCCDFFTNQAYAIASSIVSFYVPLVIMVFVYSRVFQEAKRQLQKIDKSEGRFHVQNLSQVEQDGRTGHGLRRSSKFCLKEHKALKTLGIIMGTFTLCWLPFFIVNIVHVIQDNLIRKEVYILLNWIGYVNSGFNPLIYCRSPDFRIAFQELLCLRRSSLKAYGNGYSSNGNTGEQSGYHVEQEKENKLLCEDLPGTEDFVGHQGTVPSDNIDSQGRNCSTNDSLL
# In short: (§1)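 Intracellular cAMP quantified by Eu-donor/d2-acceptor HTRF after 30 min compound exposure at 37° C in stimulation buffer with IBMX. Concentrations ran 10 μM top, 5-fold steps, 10 points. Cell lines: 1321N1 astrocytoma and CHO expressing β1 or β2; EC50 via four-parameter fit, relative efficacy against isoproterenol.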
# β1-adrenergic receptor = β1-adrenergic receptor (Homo sapiens (Human), UniProt P08588); assay: cAMP Gs dynamic HTRF assay, β1 expressing CHO cells; details: B1-AR
# Chain of β1-adrenergic receptor (P08588 whole entry, species assumed): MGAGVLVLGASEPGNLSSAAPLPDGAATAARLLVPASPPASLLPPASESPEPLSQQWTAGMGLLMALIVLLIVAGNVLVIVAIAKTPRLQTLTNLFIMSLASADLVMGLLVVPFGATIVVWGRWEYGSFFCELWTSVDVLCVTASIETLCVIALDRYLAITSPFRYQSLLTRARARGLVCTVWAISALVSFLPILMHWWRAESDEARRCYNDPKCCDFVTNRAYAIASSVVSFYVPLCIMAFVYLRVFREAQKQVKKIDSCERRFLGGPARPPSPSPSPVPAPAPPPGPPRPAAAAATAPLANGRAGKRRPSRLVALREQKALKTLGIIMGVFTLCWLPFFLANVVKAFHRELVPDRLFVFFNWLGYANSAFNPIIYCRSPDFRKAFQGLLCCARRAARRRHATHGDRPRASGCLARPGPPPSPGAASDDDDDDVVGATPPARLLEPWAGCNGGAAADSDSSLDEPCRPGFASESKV
# In short: as §1
# [2] = read-out: Average pEC50 [Receptor subtype: B3-AR, Cell type: CHO-K1] (converted)
# [3] = read-out: Average pEC50 [Receptor subtype: Endogenous, Cell type: 1321N1] (converted)
# [4] = CHO-K1 (HitHunter), read-out: Average pEC50 [Receptor subtype: B2-AR, Cell type: CHO-K1 (HitHunter)] (converted)
# [5] = CHO-K cells, read-out: Average EC50 [Receptor subtype: B2-AR, Cell type: CHO-K]
# [6] = CHO-K1 (HitHunter), read-out: Average pEC50 [Receptor subtype: B1-AR, Cell type: CHO-K1 (HitHunter)] (converted)
# [7] = CHO-K cells, read-out: Average EC50 [Receptor subtype: B1-AR, Cell type: CHO-K]
# [8] = read-out: Average EC50 [Receptor subtype: B3-AR, Cell type: CHO-K1]
# [9] = read-out: Average EC50 [Receptor subtype: Endogenous, Cell type: 1321N1]
# Chain of B3-AR (P13945 whole entry, species assumed): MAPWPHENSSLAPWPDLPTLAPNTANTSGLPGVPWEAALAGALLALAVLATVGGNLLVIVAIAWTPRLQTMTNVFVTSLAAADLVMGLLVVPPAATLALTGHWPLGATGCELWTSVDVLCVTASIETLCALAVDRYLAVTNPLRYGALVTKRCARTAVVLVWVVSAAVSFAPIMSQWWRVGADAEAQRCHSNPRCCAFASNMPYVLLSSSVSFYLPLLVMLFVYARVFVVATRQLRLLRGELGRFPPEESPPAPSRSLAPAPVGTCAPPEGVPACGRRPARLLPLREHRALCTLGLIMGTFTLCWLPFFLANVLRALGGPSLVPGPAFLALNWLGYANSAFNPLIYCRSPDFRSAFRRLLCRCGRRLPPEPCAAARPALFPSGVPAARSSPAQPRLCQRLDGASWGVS
# Chain of β2 adrenergic receptors in human astrocytoma cells (1321N1) (P07550 whole entry): as the sequence (P07550 whole entry, species assumed) above
SMILES,EC50 (B3-AR; [2]) [nM],"EC50 [1, 3] [nM]",EC50 (β2 adrenergic receptor; [4]) [nM],EC50 (β2 adrenergic receptor; [5]) [nM],EC50 (β1-adrenergic receptor; [6]) [nM],EC50 (β1-adrenergic receptor; [7]) [nM],Average pEC50 [Receptor subtype: B3-AR; Cell type: CHO-K1] (B3-AR),EC50 (B3-AR; [8]) [nM],Average pEC50 [Receptor subtype: Endogenous; Cell type: 1321N1] [1],"EC50 [1, 9] [nM]"
CC(C)NC[C@H](O)c1cccc(C(F)(F)F)n1 [Compound 03-35],> 1000,10 to 100,10 to 100,10 to 100,< 10,< 10,–,–,–,–
COc1ncccc1[C@@H](O)CNC(C)(C)C [Compound 03-59],–,–,< 10,< 10,< 10,< 10,C (C = <7-6),100 to 1000,A (A > 8),< 10
CC(C)(C)NC[C@H](O)c1ccc(C(F)(F)F)cn1 [Compound 03-126],100 to 1000,10 to 100,10 to 100,10 to 100,10 to 100,10 to 100,–,–,–,–
CC(C)(C)NC[C@H](O)c1ccnc(C(F)(F)F)n1 [Compound 03-45],–,–,100 to 1000,100 to 1000,10 to 100,10 to 100,–,< 10,–,< 10
[2H]C([2H])([2H])C(NCC(O)c1cccc(C(F)(F)F)n1)(C([2H])([2H])[2H])C([2H])([2H])[2H] (stereo not shown) [Compound 03-49],–,–,–,100 to 1000,> 1000,> 1000,–,> 1000,–,> 1000
